Results published in patent US20220411759A1, “ENDOCRINE DIFFERENTIATION-INDUCING MOLECULE” (President and Fellows of Harvard College, priority 2019, published 2022).

Legend:
[1] = test system: in vitro generated β cells; experiment: Glucose stimulated insulin secretion (GSIS) of stage 6 cells; assay type: cell-based, human
Protocol: Differentiated cells were washed twice in Krebs buffer (Krb) containing 2.8mM glucose, and then distributed into 24-well plates containing Millicell Cell culture inserts for easy transfer between conditions. Each well received 0.5 ml buffer with approximately 10^6 cells. After fasting in 2.8 mM glucose for 1 hour in 37° C., the analysis of the cells' response to changing glucose levels was performed by a series of 1 hour incubations in 37° C., in the following order: 1) 2.8 mM (low) glucose. 2) 20 mM (high) glucose. 3) brief wash in 2.8 mM glucose. 4) 1 hour incubation in 2.8 mM glucose. 5) 20 mM glucose. 6) 2.8 mM glucose with 30 mM KCL. At the end of each step (excluding the wash), the incubation buffer was collected and the amount of insulin secreted during the hour's incubation was determined using human insulin ELISA kit (ALPCO diagnostics; 80-INSHUU-E01.1). Clusters were then dispersed into single cells using TrypLE Express (Life Technologies), and cell number was counted automatically by a Vi-Cell (Beckman Coulter).

[2] = test system: human induced pluripotent stem cells (hiPSCs) from line 1016; experiment: Flow cytometry of cell proportions during directed differentiation of hiPSC-1016; assay type: cell-based; conditions: stage 5
Protocol: (§1) HUES8 ([…]) human embryonic stem cells and human induced pluripotent stem cells (hiPSCs) from line 1016 (person) were obtained from the Human Embryonic Stem Cell Facility and iPS Core Facility of the Harvard Stem Cell Institute. Cells were differentiated into beta like cells in suspension as described previously^37. Briefly, 150Xe^6 cells were suspended in 300 ml of supplemented mTeSR1 and grown in spinning flasks (70 rpm, 37° C., 5% CO2) for 48 hours prior to the beginning of a stepwise differentiation protocol:
(§2) Factors were tested in either 6-well plates placed on a rocker, or in Biott ABLE Bioreactors (Stemgent). IWR1-endo (Sigma-Aldrich) was used at 5 μM. XAV939 (Santa Cruz, SC-296704A) was used at 5 μM. Recombinant human BMP2/BMP7 (Thermo-Fisher) was used at […]. when added during stage 4, CHIR99021 was used at a concentration of […].
Differentiated cell clusters were dispersed into single-cell suspension by incubation in TrypLE Express at 37° C., quenched with PBS+2% FBS, fixed with 4% PFA for 30 min at 4° C., washed once in PBS, and resuspended in PBS+2% FBS. Staining was done in 96-well plates. Cells were incubated in blocking buffer (PBS+0.1% Triton X-100+5% donkey serum) at 4° C. for 30-60 min. […] Cells were then washed three times in PBS+5% Donkey serum and analyzed using either the BD Accuri c6 flow cytometer or the LSR-II flow cytometer (BD Biosciences). […]

[3] = test system: differentiating hESC clusters; experiment: Nanostring mRNA expression of endocrine, hormone and progenitor markers in differentiating clusters; assay type: cell-based, human; conditions: treatment during both stages 4 and 5; relative to control
Protocol: as §2
Cells were collected for RNA extraction in RLT Lysis Buffer (Qiagen) and frozen at −80° C. RNA was extracted using the RNeasy Mini Kit (Qiagen), according the manufacturer's instructions—including DNA digestion, and 100 ng of RNA was used for each reaction. Nanostring set up was performed according to the protocol for the nCounter XT Gene Expression Assay. Data was analyzed in the nSolver 2.5 Software. All genes were normalized to housekeeping genes (ITCH, RPL15, RPL19, TCEB1, UBE2D3). Analysis of changes in gene expression of markers for endocrine and progenitor cells was done using R.

[4] = test system: differentiating hESC clusters; experiment: Cell concentration in differentiation batches during stage 6; assay type: cell-based, human; conditions: treatment during stage 5, vs control
Protocol: The relative changes in gene expression relative to control conditions are presented in log values, for two independent experiments. FIG. 9E provides cell concentration in the differentiation batches analyzed in FIG. 4H. […] Bars show the average±S.E. n, from left to right: 8 (7 for IWR), 6, 8, 7, 6. […] The bars show geometric mean±S.E. of the fold change in insulin secretion following the transition from low (2.8 mM) to high (20 mM) glucose levels. FIG. 9F provides fold change in insulin secretion after one stimulation with high glucose. From left to right: n=5,6,6,3; 2-way ANOVA on log(Fold insulin secretion): p-value=0.83 and 0.16 for differences caused by the treatment or the day of analysis, respectively. […]
Differentiated cells were washed twice in Krebs buffer (Krb) containing 2.8mM glucose, and then distributed into 24-well plates containing Millicell Cell culture inserts for easy transfer between conditions. […] At the end of each step (excluding the wash), the incubation buffer was collected and the amount of insulin secreted during the hour's incubation was determined using human insulin ELISA kit (ALPCO diagnostics; 80-INSHUU-E01.1). Clusters were then dispersed into single cells using TrypLE Express (Life Technologies), and cell number was counted automatically by a Vi-Cell (Beckman Coulter).

[5] = test system: HUES8 human embryonic stem cells; experiment: Flow cytometry of cell proportions during directed differentiation of hESCs into β cells; assay type: cell-based
Protocol: as §1
Stage 4—5 days in S3 medium supplemented with KGF (50 ng/ml), Sant1 (0.25 μM) and retinoic acid (0.1 μM).
Stage 5—7 days in BE5 medium supplemented with Beta Cellulin (20 ng/ml). XXI (1 μM), Alk5ill(10 μM) and T3 (1 μM). Sant1 (0.25 μM) was added in the first three days, and retinoic acid was added at 0.1 μM in the first three days, then at 0.025 μM.
Stage 6—CMRLS medium supplemented with Alk5iII (10 μM) and T3 (1 μM).
In many of the experiments following cell collection for sc-RNAseq, the protocol was slightly modified to add Y-27632 (10 μM) at stage 3-5, and ActivinA (5 ng/ml) in stage 4. In some cases, an extra day at stage 4 was also added. For the presented functional and flow cytometry analysis in stage 6, CMRLS based media was replaced with S3 medium, without supplements.
as §2
Differentiated cell clusters were dispersed into single-cell suspension by incubation in TrypLE Express at 37° C., quenched with PBS+2% FBS, fixed with 4% PFA for 30 min at 4° C., washed once in PBS, and resuspended in PBS+2% FBS. Staining was done in 96-well plates. Cells were incubated in blocking buffer (PBS+0.1% Triton X-100+5% donkey serum) at 4° C. for 30-60 min. Cells were then re-suspended in blocking buffer with primary antibodies and incubated at room temperature for 1 hour or at 4° C. overnight. Cells were washed twice in blocking buffer and incubated in blocking buffer with secondary antibodies at 4° C. for 1 hour. Cells were then washed three times in PBS+5% Donkey serum and analyzed using either the BD Accuri c6 flow cytometer or the LSR-II flow cytometer (BD Biosciences). Analysis of the results was performed using FlowJo software.

[6] = test system: differentiating hESC clusters; conditions: Activin A and Y-27632 given together during stage 4; cited from earlier work
[7] = factor added during stage 4, flow cytometry at end of stage 4, vs control
[8] = XXI removed from the media during stage 5, flow cytometry at end of stage 5, vs control with XXI

O=C(Nc1cccc2cccnc12)c1ccc(N2C(=O)[C@@H]3[C@H](C2=O)[C@@H]2C=C[C@H]3C2)cc1 [IWR1-endo]
insulin secretion in response to high glucose levels (first stimulation) ([1]; treatment during stage 5, 2.8 mM to 20 mM glucose): maintain their ability to secrete insulin | insulin release on second stimulation with high glucose, compared to controls ([1]; treatment during stage 5, consecutive stimulations, 20 mM glucose): release less insulin in the second challenge | proportion of hiPSC-1016 derived CHGA+ cells [2]: increases | expression of endocrine markers [3]: increased expression | expression of progenitor markers [3]: downregulated | overall cell numbers / cell concentration during stage 6 [4]: slightly increased | overall cell numbers / cell concentration during stage 6 ([4]; listed as IWR): slightly higher | number / proportion of CHGA+ endocrine cells [5, 7]: significantly raised | number / proportion of PDX1+/NKX6.1+ progenitors [5, 7]: reduced | overall yield of in vitro generated β cells ([5]; treatment during stage 5, concluded from β cell proportion and cell numbers): increases | increase in proportion of C-PEP+/NKX6.1+ β cells, on average, relative to controls ([5]; treatment during stage 5, flow cytometry at end of stage 5): more than 50% | proportion of CHGA+ endocrine cells ([5]; treatment during stage 5, flow cytometry at end of stage 5, compared with the stage 4 effect): even higher relative increase

C[C@H](NC(=O)Cc1cc(F)cc(F)c1)C(=O)N[C@H]1N=C(c2ccccc2)c2ccccc2N(C)C1=O [XXI]
number of CPEP+NKX6.1+ β cells [5, 8]: dramatically reduced | number of GLP2+ α cells [5, 8]: did not significantly affect

C[C@@H](N)[C@H]1CC[C@H](C(=O)Nc2ccncc2)CC1 [Y-27632]
appearance of buds on the clusters' surface [6]: induces

Cc1c[nH]c(-c2cnc(NCCNc3ccc(C#N)cn3)nc2-c2ccc(Cl)cc2Cl)n1 [CHIR99021]
number / proportion of CHGA+ endocrine cells [5, 7]: decreased

B1: Activin A: protein factor (R&D Systems) added to differentiation media (protein, UniProt P08476 311-426, looked up)
Inhibin beta A chain: GLECDGKVNICCKKQFFVSFKDIGWNDWIIAPSGYHANYCEGECPSHIAGTSGSSLSFHSTVINHYRMRGHSPFANLKSCCVPTKLRPMSMLYYDDGQNIIKKDIQNMIVEECGCS
modifications: Inhibin beta A chain
notes: protein factor (R&D Systems) added to differentiation media
appearance of buds on the clusters' surface [6]: induces
